Assay results: patent EP4218772A1, “LITHIUM SALT FOR USE IN TREATMENT OF PULMONARY HYPERTENSION” (Charité - Universitätsmedizin Berlin, priority 2022, dated 2023)

Test system: C57BL/6-mice
Description: Animal experiments: • General: 10-12 week old male C57BL/6-mice were kept at normoxia or in a hypoxia chamber at 10% O2 for five weeks and got either regular chow or chow containing 0.2% Li2CO3. • IFT88 knock-out in mice: IFT88-flox mice were bred with Cdh5-cre mice. 2 weeks prior to treatment, IFT88fl/fl, Cdh5-cre+ and Cdh-cre- mice were intraperitoneally injected with tamoxifen (75 mg/kg body weight) to induce knock-out. • Echocardiography: Mice were anesthetized with initially 3% isoflurane. The animals are fixed in dorsal position and their thoracal hair was removed with depilatory cream. Pulmonary artery flow, tricuspid valve movement and other echocardiographic parameters were assessed with the echo device Vevo3100. • RVSP measurement: After five weeks, the mice got an intraperitoneal injection of ketamin (200 mg/kg bodyweight (bw)) and xylazine (10 mg/kg bw). A 2F microtip millar catheter was advanced into the right ventricle via the jugularis vein to measure right ventricle systolic pressure (RVSP).

Q: lithium carbonate [Li2CO3] was tested. Which “right ventricular systolic blood pressure” value (chow containing 0.2% Li2CO3, hypoxia 10% O2 for five weeks) did it give?
A: reduced the increase

Q: What about the “development of a PH under chronic hypoxia” value (food with 0.2% Li2CO3, 10% O2 for 5 weeks, Fig. 1D) of the same substance?
A: prevents the development of a PH
